# pIC50: −log10 of the molar value. Read-outs that look alike come from different tables or passages of the source.
# Key:
# [1] = molecular target: T1, hERG potassium channel (IKr) (Homo sapiens, UniProt Q12809)
# [2] = test system: normal human induced pluripotent stem cell (hiPSC) cardiomyocyte; conditions: for WT-Fold Prolongation: APD; for WT-Prolong. Dose: 'No AP' wraps to 'No AP Prolong.'; for WT-Cess. Dose / WT-EC50 (μM)-Prolong.: deuterated vs non-deuterated; for WT-EC50 (μM)-Prolong.: 'No AP' wraps to 'No AP prolongation'
# [3] = molecular target: Nav1.5 sodium channel transfected into HEK293 cells (Homo sapiens, UniProt Q14524); experiment: Patch clamp electrophysiology, peak (INaP) and late (INaL) sodium current in transfected cells
# In short: (§1)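 Conventional whole-cell patch clamp was performed on HEK293 cells transfected with Nav1.5 and plated on 0.1% gelatin-coated dishes. Values were reported as IC50 ± STD.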
# [4] = molecular target: Nav1.5 sodium channel, peak current (INaP) (Homo sapiens, UniProt Q14524, form not given); experiment: in vitro; conditions: Peak Na+ (INaP) IC50
# In short: as §1
# [5] = test system: cardiomyocytes derived from hiPSCs from a LQTS3 patient; conditions: for LQT-Cess. Dose: deuterated vs non-deuterated; for action potential shortening compared to unlabeled compound: deuterium-labeled analogs
# Male BALBc mice = conditions: mice, i.p.; for tolerability: 30-100 mg/kg, 24 hr
# Source text: Male BALBc mice (20-22 g) were used throughout these studies. The animals were maintained in a temperature-controlled room with 12-hr periods of light and darkness and had continuous access to water and animal food. […] Groups contained 2-4 animals.
# [6] = molecular target: T1, hERG potassium channel (IKr); experiment: Automated patch clamp, hERG (IKr) expressed in CHO cells; conditions: hERG (IKr) IC50, CHO cells
# [7] = Solubility (water; 10:30:60% DMSO:PEG400:water vehicle); format: physicochemical
# [8] = test system: cardiomyocytes derived from hiPSCs from a LQTS3 patient; experiment: cells; conditions: Homo sapiens, Cardiomyocyte, read-out: LQT-IC50 (uM)-Shortening
# CYP3A4 = CYP3A4 (Homo sapiens, UniProt P08684); experiment: Metabolism with highly purified CYP3A4 (HPLC); conditions: 3 pmol enzyme/incubation; 30 mins, 37° C.; nmol metabolism/incubation
# Chain of CYP3A4 (P08684 whole entry): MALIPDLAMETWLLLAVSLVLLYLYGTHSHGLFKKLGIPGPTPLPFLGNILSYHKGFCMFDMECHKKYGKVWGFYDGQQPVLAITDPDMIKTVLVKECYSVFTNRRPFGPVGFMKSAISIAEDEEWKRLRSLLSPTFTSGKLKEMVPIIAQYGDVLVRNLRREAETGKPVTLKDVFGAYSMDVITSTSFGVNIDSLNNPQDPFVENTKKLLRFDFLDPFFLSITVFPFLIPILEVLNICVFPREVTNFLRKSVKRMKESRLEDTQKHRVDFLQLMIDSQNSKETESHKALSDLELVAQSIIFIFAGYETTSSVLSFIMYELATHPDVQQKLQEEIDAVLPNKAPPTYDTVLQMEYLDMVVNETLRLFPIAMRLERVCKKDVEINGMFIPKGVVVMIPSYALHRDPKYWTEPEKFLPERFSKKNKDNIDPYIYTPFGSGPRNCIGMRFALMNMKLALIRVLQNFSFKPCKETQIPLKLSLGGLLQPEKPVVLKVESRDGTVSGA
# Human FMO1 = molecular target: T2, Human FMO1 (Homo sapiens, UniProt Q01740); experiment: Metabolism with human FMO1 (nmol metabolism/incubation); conditions: 15 μg enzyme/incubation; 30 mins, 37° C.; nmol metabolism/incubation
# T2 sequence (Q01740 1-532): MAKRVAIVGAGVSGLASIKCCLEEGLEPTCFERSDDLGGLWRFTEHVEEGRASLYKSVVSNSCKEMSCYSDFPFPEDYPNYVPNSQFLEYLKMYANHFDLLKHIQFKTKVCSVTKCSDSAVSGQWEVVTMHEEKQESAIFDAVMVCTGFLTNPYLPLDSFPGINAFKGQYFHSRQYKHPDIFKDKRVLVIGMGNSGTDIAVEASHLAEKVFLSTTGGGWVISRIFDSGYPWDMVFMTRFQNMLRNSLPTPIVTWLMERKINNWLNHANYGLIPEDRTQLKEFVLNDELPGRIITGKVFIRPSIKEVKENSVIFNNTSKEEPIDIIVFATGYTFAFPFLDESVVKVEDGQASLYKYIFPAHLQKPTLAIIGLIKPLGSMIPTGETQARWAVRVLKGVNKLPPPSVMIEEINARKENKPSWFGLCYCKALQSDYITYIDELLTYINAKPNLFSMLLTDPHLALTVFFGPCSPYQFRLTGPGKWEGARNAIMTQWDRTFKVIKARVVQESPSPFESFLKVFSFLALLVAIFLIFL
# Human FMO3 = Human FMO3 (Homo sapiens, UniProt P31513); conditions: 15 μg enzyme/incubation; 30 mins, 37° C.; nmol metabolism/incubation
# Chain of Human FMO3 (P31513 whole entry): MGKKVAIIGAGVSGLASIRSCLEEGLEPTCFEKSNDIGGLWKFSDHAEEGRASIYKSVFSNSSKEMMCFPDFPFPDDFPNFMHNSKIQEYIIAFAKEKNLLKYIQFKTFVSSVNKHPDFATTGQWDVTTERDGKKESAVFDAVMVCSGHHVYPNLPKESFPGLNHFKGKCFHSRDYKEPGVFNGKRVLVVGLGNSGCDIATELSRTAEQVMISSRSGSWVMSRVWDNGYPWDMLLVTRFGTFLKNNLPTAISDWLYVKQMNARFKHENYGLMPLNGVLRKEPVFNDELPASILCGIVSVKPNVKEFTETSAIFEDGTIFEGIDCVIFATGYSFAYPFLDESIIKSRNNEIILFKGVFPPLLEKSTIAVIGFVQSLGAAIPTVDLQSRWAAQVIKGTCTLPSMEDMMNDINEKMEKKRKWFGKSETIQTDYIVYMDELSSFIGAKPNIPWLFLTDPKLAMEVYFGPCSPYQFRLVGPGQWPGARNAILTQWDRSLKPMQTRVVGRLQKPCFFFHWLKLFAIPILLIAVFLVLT
# [9] = Metabolism in mouse hepatic S9; conditions: for % Metabolism Mouse S9: 0.5 mg of protein
# Experimental: (§2) A typical incubation contained rat, mouse, dog or human liver microsomes (0.4-0.5 mg of protein), 100 mM potassium phosphate buffer (pH7.4), 50 μM test compound, an NADPH-generating system consisting of 0.5 mM NADP^+, 0.5 mM glucose-6-phosphate, 1 IU/mL glucose-6-phosphate dehydrogenase, 1 mg/mL diethylenetriaminepentaaceticacid (DETAPAC), and 3 mM MgCl2 in a final incubation volume of 0.25 mL. […] After centrifugation at 3000 rpm for 5 min, the organic fraction was collected, the solvent was removed with a stream of argon and the residue was reconstituted in 125 μL of MeOH and 125 μL H2O, mixed thoroughly, centrifuged at 13,000 rpm for 5 min and analyzed by high performance liquid chromatography. Samples were run on a Hitachi D-7000 HPLC system using a L-7100 analytical pump, L-7400 UV-Visible variable wavelength detector, and L-7600 automatic sample injector. […] Disappearance of the analyte was monitored over time. A plot of the area under the curve for the normalized analyte versus time afforded the half-life values and kapp.
# (§3) Microsomes contain CYPs and FMO metabolic enzymes. S9 contains soluble enzymes (i.e., aldehyde oxidase, MAO, etc.).
# [10] = Metabolic stability in dog liver microsomes; format: in vitro ADME; conditions: for half-life at 50 μM: dog, liver microsomes, pH 7.4, NADPH-generating system, 37° C., read-out: Liver Microsomes t1/2 Dog
# Experimental: as §2
# [11] = Metabolic stability in mouse liver microsomes; format: in vitro ADME; conditions: for half-life at 50 μM: mouse, liver microsomes, pH 7.4, NADPH-generating system, 37° C., read-out: Liver Microsomes t1/2 Mouse
# Experimental: as §2
# [12] = Metabolic stability in human liver microsomes; format: in vitro ADME; conditions: for half-life at 50 μM: human, liver microsomes, pH 7.4, 50 μM, NADPH-generating system, 37° C., read-out: Liver Microsomes t1/2 Human
# Experimental: as §2
# [13] = Metabolic stability in rat liver microsomes; format: in vitro ADME; conditions: for half-life at 50 μM: rat, liver microsomes, pH 7.4, NADPH-generating system, 37° C., read-out: Liver Microsomes t1/2 Rat
# Experimental: as §2
# [14] = Metabolism in dog hepatic S9; format: in vitro ADME; conditions: 0.5 mg of protein
# Experimental: as §2, §3
# [15] = Metabolism in human hepatic S9; conditions: 0.5 mg of protein
# Experimental: as §2, §3
# [16] = Metabolism in rat hepatic S9; format: in vitro ADME; conditions: 0.5 mg of protein
# Experimental: as §2, §3
# [17] = ratio peak/late IC50, Example 2
# [18] = 'No AP' wraps to 'No AP shortening'
# T1 sequence (Q12809 whole entry): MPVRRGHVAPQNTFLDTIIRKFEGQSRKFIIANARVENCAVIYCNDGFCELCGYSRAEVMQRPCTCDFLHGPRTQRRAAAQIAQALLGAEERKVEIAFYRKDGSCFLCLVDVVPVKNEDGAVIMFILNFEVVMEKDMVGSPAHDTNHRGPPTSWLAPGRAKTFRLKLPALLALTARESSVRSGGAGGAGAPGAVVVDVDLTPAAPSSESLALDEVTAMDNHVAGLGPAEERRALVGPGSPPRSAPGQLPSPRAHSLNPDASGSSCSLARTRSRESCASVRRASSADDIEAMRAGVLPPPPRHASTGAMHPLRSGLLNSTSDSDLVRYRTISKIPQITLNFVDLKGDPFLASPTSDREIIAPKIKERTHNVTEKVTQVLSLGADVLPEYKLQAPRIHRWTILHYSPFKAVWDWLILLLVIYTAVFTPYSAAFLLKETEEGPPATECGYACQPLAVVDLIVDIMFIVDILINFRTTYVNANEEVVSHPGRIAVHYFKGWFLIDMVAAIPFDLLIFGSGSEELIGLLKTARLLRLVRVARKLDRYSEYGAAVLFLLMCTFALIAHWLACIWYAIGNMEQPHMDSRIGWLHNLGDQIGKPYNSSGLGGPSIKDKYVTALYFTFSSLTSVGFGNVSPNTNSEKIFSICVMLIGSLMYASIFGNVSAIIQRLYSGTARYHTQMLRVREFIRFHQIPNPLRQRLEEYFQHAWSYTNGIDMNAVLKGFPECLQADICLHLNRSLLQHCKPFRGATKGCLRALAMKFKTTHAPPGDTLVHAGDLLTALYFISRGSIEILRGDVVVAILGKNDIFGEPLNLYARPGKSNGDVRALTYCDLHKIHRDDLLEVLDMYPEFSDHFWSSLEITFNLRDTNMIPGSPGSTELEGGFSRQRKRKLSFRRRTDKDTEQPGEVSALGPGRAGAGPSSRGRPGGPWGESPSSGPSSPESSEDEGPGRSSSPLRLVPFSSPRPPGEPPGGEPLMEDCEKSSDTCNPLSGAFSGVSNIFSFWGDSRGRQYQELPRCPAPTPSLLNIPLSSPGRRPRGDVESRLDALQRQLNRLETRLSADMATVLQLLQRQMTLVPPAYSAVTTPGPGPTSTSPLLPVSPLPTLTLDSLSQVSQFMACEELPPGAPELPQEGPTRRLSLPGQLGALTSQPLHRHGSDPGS
compound,measurement,setting,value
COCCNC(COc1cc(C)cc(C)c1)c1ccccc1.Cl (centres unmarked) [Compound 69],DNaP/Kr,[1],7.5
same,WT-Fold Prolongation,[2]; normal hiPSC cardiomyocytes,None
same,Cessation of Beating,"[2]; human, 5 min",200 µM
same,WT-Prolongation Dose,[2]; normal hiPSC cardiomyocytes,None
same,DNap/NaL,[3]; ratio peak IC50/late IC50,45.3
same,DNap/NaL,[3]; [17],50.5
same,pIC50,[4],4.42
same,LQT-IC50 (uM)-Shortening,"[5]; APD shortening, LQT3 cardiomyocytes",None
same,LQT-Fold Shortening,[5]; LQT3 cardiomyocytes,None
same,LQT-Shortening Dose,[5]; LQT3 cardiomyocytes,None
same,LQT-Cessation Dose,"[5]; human, 5 min",200 µM
same,behavioral/toxic effects at 200 mg/kg,Male BALBc mice,slight lethargy
same,tolerability,Male BALBc mice,well-tolerated
same,pIC50,[6],5.29
same,pIC50,[6]; Example 2,5.29
same,solubility (in words),[7],good solubility
Cc1ccncc1OCC(N)c1ccccc1.Cl (centres unmarked) [Compound 88],DKr/NaL,[1],10.7
same,DNaP/Kr,[1],7.7
same,IC50,[8],12.8 µM
same,Cessation of Beating,[2],None
same,WT-Fold Prolongation,[2]; normal hiPSC cardiomyocytes,1.52
same,pIC50,[3],5.98
same,DNap/NaL,[3]; [17],87.4
same,pIC50,[4],4.04
same,LQT-Cessation Dose,[5],None
same,LQT-Fold Shortening,[5]; LQT3 cardiomyocytes,1.287
same,behavioral/toxic effects at 200 mg/kg,Male BALBc mice,slight lethargy
same,tolerability,Male BALBc mice,well-tolerated
same,pIC50,[6]; Example 2,4.95
same,solubility (in words),[7],good solubility
Cl.[2H]C(N)(COc1cc(C(F)(F)F)cc(C(F)(F)F)c1)c1ccccc1 (centres unmarked) [Compound 104a],Human CYP3A4 (nmol/incub),CYP3A4,1.1 nmol/incub
same,Human FMO1 (nmol/incub),Human FMO1,0.8 nmol/incub
same,WT-Prolong. Dose,[2],No AP
same,WT-Cess. Dose,[2],66 µM
same,WT-EC50 (μM)-Prolong.,[2],No AP
same,Human FMO3 (nmol/incub),Human FMO3,0.6 nmol/incub
same,LQT-EC50 (μM)-Shortening,[5]; [18],No AP
same,LQT-Fold Shortening,[5]; [18],1.274
same,LQT-Shortening Dose,[5]; [18],22 µM
same,LQT-Cess. Dose,[5],133 µM
same,action potential shortening compared to unlabeled compound,[5],equal to or greater action potential shortening
Cl.[2H]C(N)(COc1cc(C)cc(C)c1)c1ccccc1 (centres unmarked) [Compound 104b],Human CYP3A4 (nmol/incub),CYP3A4,0.3 nmol/incub
same,Human FMO1 (nmol/incub),Human FMO1,1.0 nmol/incub
same,WT-Prolong. Dose,[2],No AP
same,WT-Cess. Dose,[2],22 µM
same,WT-EC50 (μM)-Prolong.,[2],No AP
same,Human FMO3 (nmol/incub),Human FMO3,0.05 nmol/incub
same,LQT-Fold Shortening,[5]; [18],1.280
same,LQT-Shortening Dose,[5]; [18],2.5 µM
same,LQT-Cess. Dose,[5],22 µM
same,action potential shortening compared to unlabeled compound,[5],equal to or greater action potential shortening
Cl.[2H]C(N)(COc1ccccc1C)c1ccccc1 (centres unmarked) [Compound 104c],Human CYP3A4 (nmol/incub),CYP3A4,1.0 nmol/incub
same,Human FMO1 (nmol/incub),Human FMO1,1.4 nmol/incub
same,Mouse liver S-9 (nmol/incub),"[9]; 0.4 mg protein/incubation, 30 mins, 37° C., nmol metabolism/incubation",13.2 nmol/incub
same,Human FMO3 (nmol/incub),Human FMO3,1.3 nmol/incub
Cl.[2H]C(N)(COc1ccccc1C(F)(F)F)c1ccccc1 (centres unmarked) [Compound 104d],Human CYP3A4 (nmol/incub),CYP3A4,0.3 nmol/incub
same,Human FMO1 (nmol/incub),Human FMO1,0.3 nmol/incub
same,WT-Prolong. Dose,[2],No AP
same,WT-Cess. Dose,[2],22 µM
same,WT-EC50 (μM)-Prolong.,[2],No AP
same,Human FMO3 (nmol/incub),Human FMO3,0.7 nmol/incub
same,LQT-EC50 (μM)-Shortening,[5]; [18],shortens)
same,LQT-Fold Shortening,[5]; [18],1.395
same,LQT-Shortening Dose,[5]; [18],22 µM
same,LQT-Cess. Dose,[5],66 µM
COCCNC(COc1ccccc1C(F)(F)F)c1ccccc1.Cl (centres unmarked) [Compound 105],DKr/NaL,[1],18.3
same,DNaP/Kr,[1],2.11
same,pIC50,[3],5.94
same,DNap/NaL,[3]; [17],38.9
same,pIC50,[4],4.35
same,tolerability,Male BALBc mice,well-tolerated
same,pIC50,[6]; Example 2,4.68
same,solubility (in words),[7],good solubility
Cc1cc(C)cc(OCC(N)c2ccccc2)c1 (centres unmarked) [drawing 301],half-life at 50 μM,[10],3.07 h
same,half-life at 50 μM,[11],0.983 h
same,half-life at 50 μM,[12],1.73 h
same,half-life at 50 μM,[13],0.867 h
NC(COc1cc(C(F)(F)F)cc(C(F)(F)F)c1)c1ccccc1 (centres unmarked) [drawing 302],half-life at 50 μM,[10],1.93 h
same,"parent after 60 min, Mouse liver microsomes (Stable)",[11]; 60 min,Stable >95% parent after 60 min
same,"parent after 60 min, Human liver microsomes (Stable)",[12],Stable >95% parent after 60 min
same,"parent after 60 min, Rat liver microsomes (Stable)",[13]; 60 min,Stable >95% parent after 60 min
Cc1ccccc1OCC(N)c1ccccc1 (centres unmarked) [drawing 303],half-life at 50 μM,[11],3.47 h
same,half-life at 50 μM,[12],2.35 h
same,half-life at 50 μM,[13],7.92 h
NC(COc1ccccc1C(F)(F)F)c1ccccc1 (centres unmarked) [drawing 304],"parent after 60 min, Dog liver microsomes (Stable)",[10]; 60 min,Stable >95% parent after 60 min
same,half-life at 50 μM,[11],3.27 h
same,"parent after 60 min, Human liver microsomes (Stable)",[12],Stable >95% parent after 60 min
same,half-life at 50 μM,[13],3.3 h
NC(COc1cc(C(F)(F)F)cc(C(F)(F)F)c1)c1ccccc1 (centres unmarked) [drawing 305],% Metabolism Mouse S9,[9],11.6 ± 3.0%
same,% Metabolism Dog S9,[14],25.6 ± 17.9%
same,% Metabolism Human S9,[15],41.1 ± 28.9%
same,% Metabolism Rat S9,[16],2.1 ± 1.4%
Cc1cc(C)cc(OCC(N)c2ccccc2)c1 (centres unmarked) [drawing 306],% Metabolism Mouse S9,[9],13.6 ± 5.0%
same,% Metabolism Dog S9,[14],35.8 ± 7.0%
same,% Metabolism Human S9,[15],39.2 ± 8.4%
same,% Metabolism Rat S9,[16],45.0 ± 14.5%
Cc1ccccc1OCC(N)c1ccccc1 (centres unmarked) [drawing 307],% Metabolism Mouse S9,[9],34.6%
same,% Metabolism Dog S9,[14],98.0 ± 28.1%
same,% Metabolism Human S9,[15],7.0 ± 0.1%
same,% Metabolism Rat S9,[16],97.8 ± 19.5%
NC(COc1ccccc1C(F)(F)F)c1ccccc1 (centres unmarked) [drawing 308],% Metabolism Mouse S9,[9],55.0 ± 22.4%
same,% Metabolism Dog S9,[14],51.0 ± 19.1%
same,% Metabolism Human S9,[15],28.0 ± 7.4%
same,% Metabolism Rat S9,[16],15.4 ± 10.5%

# — US11492325B2, “Compounds as inhibitors of sodium channels” (Human BioMolecular Research Institute, priority 2016, dated 2022)
